Assay [1] concerns bacterial Biofilm (Listeria monocytogenes ATCC 35152, Clostridium sporogenes ATCC 19404, Candida albicans ATCC 26555 and Escherichia col). Put plainly: MIC test against bacterial Biofilm. The note with it: incubated 48 h at 37° C. The class given is cell-based.
Assay [2] concerns Pseudomonas aeruginosa (ATCC 15442). Put plainly: Minimum Inhibitory Concentration (MIC) test. The note with it: incubated 48 h at 37° C.

The structures appear in SMILES notation.

As for `Cc1ccc(C(C)C)cc1O` [Carvacrol, 5-Isopropil-2-metilfenol], the “Minimum inhibitory concentration (MIC)” value worked out at 1.01% in assay [1] and 0.89% in assay [2].
In the same order, the values of `CC12CCC(CC1)C(C)(C)O2` [Eucalyptol, 1,3,3-Trimethyl-2-oxabicyclo[2.2.2]octane] are 1.21% and 1.09%.
In the same order, the values of `CC1CCC(C(C)C)C(O)C1` (stereo not shown) [Menthol, 5-Methyl-2-(propan-2-yl)cyclohexan-1-ol] are 5.98% and 5.32%.
For `CC1=CCC(O)(C(C)C)CC1` (stereo not shown) [Terpinen-4-ol, 4-Methyl-1-(propan-2-yl)cyclohex-3-en-1-ol], in that order: 1.96% and 1.64%.
As for `Cc1ccc(C(C)C)c(O)c1` [Thymol, 5-Methyl-2-(propan-2-yl) phenol], the “Minimum inhibitory concentration (MIC)” value in assay [1] is given as 2.29%; in assay [2], 2.11%.

For the origin of these results see US20260034092A1, “BIOCIDAL COMPOSITION” (priority 2022, published 2026).
